Experimental data taken from publication PMC10169810, “Ligand-induced activation and G protein coupling of prostaglandin F2α receptor” (Nature Communications, 2023).
Where “and” joins values, the source holds several entries; their conditions need not be identical. Identical values can stand only once. Entries after “also recorded” stand apart in the source; their conditions may differ.

How the values were obtained:
Type in all cases: cell-based
[1] = biological target: T1, FP S33A (Homo sapiens, UniProt P43088, S33A); experiment: IP-One accumulation assay, FP S33A mutant
T1 construct: Flag; expressed in transfected cells; host or cells: AD293 cells
Procedure: (§1) IP-One production was measured using the IP-One HTRF kit (Cisbio)[50]. Briefly, AD293 cells (Agilent) were grown to a density of 400,000–500,000 cells per mL and then […] with separate plasmids at a suitable concentration. The culture was collected by centrifugation 24 h after incubation at 37 °C in 5% CO2 with a Stimulation Buffer. The cell suspension was then dispensed in a white 384-well plate at a volume of 7 μl per well before adding 7 μl of ligands. The mixture was incubated for 1 h at 37 °C. IP-One-d2 and anti-IP-One Cryptate dissolved in Lysis Buffer (3 μl each) were subsequently added and incubated for 15-30 min at room temperature before measurement. Intracellular IP-One measurement was carried out with the IP-One HTRF kit and EnVision multi-plate reader (PerkinElmer) according to the manufacturer’s instructions. Data were normalized to the baseline response of the ligand. pEC50 Emin, and Emax for each curve were calculated by GraphPad Prism 8.0. ∆pEC50 equals pEC50 of agonists to specific Mutant minus pEC50 of agonists to WT. Data are presented as mean values ± SEM; n = 3 independent samples; n.s. no significant; *p < 0.05; **p < 0.01; ***p < 0.001.

[2] = biological target: T2, FP W262A (Homo sapiens, UniProt P43088, W262A); experiment: IP-One accumulation assay, FP W262A mutant; settings: W262 to alanine vs WT FP
T2 construct: Flag; expressed in transfected cells; host or cells: AD293 cells
Procedure: as §1

[3] = biological target: T3, FP F205A (Homo sapiens, UniProt P43088, F205A); experiment: IP-One accumulation assay, FP F205A mutant; settings: F205 to alanine vs WT FP
T3 construct: Flag; expressed in transfected cells; host or cells: AD293 cells
Procedure: as §1

[4] = biological target: T4, FP H81A (Homo sapiens, UniProt P43088, H81A); experiment: IP-One accumulation assay, FP H81A mutant; settings: H81 mutated to alanine vs WT FP
T4 construct: Flag; expressed in transfected cells; host or cells: AD293 cells
Procedure: as §1

[5] = biological target: T5, FP I290A (Homo sapiens, UniProt P43088); experiment: IP-One accumulation assay, FP I290A mutant; settings: L290 to alanine vs WT FP
T5 construct: Flag; expressed in transfected cells; host or cells: AD293 cells
Procedure: as §1

[6] = biological target: T6, FP L213A (Homo sapiens, UniProt P43088, L213A); experiment: IP-One accumulation assay, FP L213A mutant; settings: L213A mutant vs WT FP
T6 construct: Flag; expressed in transfected cells; host or cells: AD293 cells
Procedure: as §1

[7] = biological target: T7, FP R133A (Homo sapiens, UniProt P43088, R133A); experiment: IP-One accumulation assay, FP R133A mutant; settings: for IP1 accumulation response to PGF2α (dose-response source data): FP R133A, replicate values
T7 construct: expressed in transfected cells; host or cells: AD293 cells
Procedure: as §1

[8] = biological target: T8, FP M115A (Homo sapiens, UniProt P43088, M115A); experiment: IP-One accumulation assay, FP M115A mutant
T8 construct: Flag; expressed in transfected cells; host or cells: AD293 cells
Procedure: as §1

[9] = biological target: T9, FP Q250A (Homo sapiens, UniProt P43088, Q250A); experiment: IP-One accumulation assay, FP Q250A mutant; settings: Q250A mutant vs WT FP
T9 construct: expressed in transfected cells; host or cells: AD293 cells
Procedure: as §1

[10] = biological target: T10, FP T184A (Homo sapiens, UniProt P43088, T184A); experiment: IP-One accumulation assay, FP T184A mutant; settings: T184 mutant (alanine) vs WT FP
T10 construct: Flag; expressed in transfected cells; host or cells: AD293 cells
Procedure: as §1

[11] = biological target: T11, FP S118A (Homo sapiens, UniProt P43088, S118A); experiment: IP-One accumulation assay, FP S118A mutant; settings: S118A mutant vs WT FP; IP1 accumulation, AD293 cells; single values of n = 3 independent samples
T11 construct: Flag; expressed in transfected cells; host or cells: AD293 cells
Procedure: as §1

[12] = biological target: T12, FP mutant of C134 (Homo sapiens, UniProt P43088, C134A); experiment: IP-One accumulation assay, FP C134 mutant; settings: C134 mutant vs WT FP
T12 construct: expressed in transfected cells; host or cells: AD293 cells
Procedure: as §1

[13] = biological target: T13, FP R291A (Homo sapiens, UniProt P43088, R291A); experiment: IP-One accumulation assay, FP R291A mutant
T13 construct: Flag; expressed in transfected cells; host or cells: AD293 cells
Procedure: as §1

[14] = biological target: T14, FP Q297A (Homo sapiens, UniProt P43088, Q297A); experiment: IP-One accumulation assay, FP Q297A mutant; settings: Q297A mutant vs WT FP; IP1 accumulation, AD293 cells; single values of n = 3 independent samples
T14 construct: Flag; expressed in transfected cells; host or cells: AD293 cells
Procedure: as §1

[15] = biological target: T15, FP F265A (Homo sapiens, UniProt P43088, F265A); experiment: IP-One accumulation assay, FP F265A mutant
T15 construct: Flag; expressed in transfected cells; host or cells: AD293 cells
Procedure: as §1

[16] = biological target: T16, FP T294A (Homo sapiens, UniProt P43088, T294A); experiment: IP-One accumulation assay, FP T294A mutant
T16 construct: Flag; expressed in transfected cells; host or cells: AD293 cells
Procedure: as §1

[17] = biological target: T17, FP R308A (Homo sapiens, UniProt P43088, R308A); experiment: IP-One accumulation assay, FP R308A mutant; settings: R308A mutant vs WT FP
T17 construct: expressed in transfected cells; host or cells: AD293 cells
Procedure: as §1

[18] = biological target: T18, FP mutant of E132 (Homo sapiens, UniProt P43088, E132A); experiment: IP-One accumulation assay, FP E132 mutant; settings: E132 mutant vs WT FP
T18 construct: Flag; expressed in transfected cells; host or cells: AD293 cells
Procedure: as §1

[19] = biological target: T19, FP Y92A (Homo sapiens, UniProt P43088, Y92A); experiment: IP-One accumulation assay, FP Y92A mutant; settings: Y92 mutant (alanine) vs WT FP
T19 construct: Flag; expressed in transfected cells; host or cells: AD293 cells
Procedure: as §1

[20] = biological target: T20, human FP (WT) (Homo sapiens, UniProt P43088); experiment: IP-One (IP1) accumulation assay, wild-type FP
T20 construct: Flag; expressed in transfected cells; host or cells: AD293 cells
Procedure: as §1

[21] = biological target: T21, FP L123A (Homo sapiens, UniProt P43088, L123A); experiment: IP-One accumulation assay, FP L123A mutant; settings: L123A mutant vs WT FP
T21 construct: Flag; expressed in transfected cells; host or cells: AD293 cells
Procedure: as §1

T15 sequence (P43088 whole entry F265A): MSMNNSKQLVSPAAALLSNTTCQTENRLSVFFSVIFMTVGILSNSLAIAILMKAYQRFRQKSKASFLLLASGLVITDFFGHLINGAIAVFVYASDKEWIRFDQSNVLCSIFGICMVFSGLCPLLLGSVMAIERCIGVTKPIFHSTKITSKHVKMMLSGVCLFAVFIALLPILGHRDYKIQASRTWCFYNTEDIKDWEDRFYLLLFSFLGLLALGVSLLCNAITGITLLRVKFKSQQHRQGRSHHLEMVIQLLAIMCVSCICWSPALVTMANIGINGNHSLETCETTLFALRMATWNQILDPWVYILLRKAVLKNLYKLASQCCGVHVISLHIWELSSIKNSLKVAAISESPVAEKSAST
T1 sequence (P43088 whole entry S33A): as the sequence (P43088 whole entry F265A) above, with S33A, A265F counted along it
T8 sequence (P43088 whole entry M115A): as the sequence (P43088 whole entry F265A) above, with M115A, A265F counted along it
T16 sequence (P43088 whole entry T294A): as the sequence (P43088 whole entry F265A) above, with A265F, T294A counted along it
T7 sequence (P43088 whole entry R133A): as the sequence (P43088 whole entry F265A) above, with R133A, A265F counted along it
T11 sequence (P43088 whole entry S118A): as the sequence (P43088 whole entry F265A) above, with S118A, A265F counted along it
T20 sequence (P43088 whole entry): as the sequence (P43088 whole entry F265A) above, with A265F counted along it
T13 sequence (P43088 whole entry R291A): as the sequence (P43088 whole entry F265A) above, with A265F, R291A counted along it
T14 sequence (P43088 whole entry Q297A): as the sequence (P43088 whole entry F265A) above, with A265F, Q297A counted along it
T18 sequence (P43088 whole entry E132A): as the sequence (P43088 whole entry F265A) above, with E132A, A265F counted along it
T19 sequence (P43088 whole entry Y92A): as the sequence (P43088 whole entry F265A) above, with Y92A, A265F counted along it
T2 sequence (P43088 whole entry W262A): as the sequence (P43088 whole entry F265A) above, with W262A, A265F counted along it
T9 sequence (P43088 whole entry Q250A): as the sequence (P43088 whole entry F265A) above, with Q250A, A265F counted along it
T17 sequence (P43088 whole entry R308A): as the sequence (P43088 whole entry F265A) above, with A265F, R308A counted along it
T10 sequence (P43088 whole entry T184A): as the sequence (P43088 whole entry F265A) above, with T184A, A265F counted along it
T12 sequence (P43088 whole entry C134A): as the sequence (P43088 whole entry F265A) above, with C134A, A265F counted along it
T3 sequence (P43088 whole entry F205A): as the sequence (P43088 whole entry F265A) above, with F205A, A265F counted along it
T6 sequence (P43088 whole entry L213A): as the sequence (P43088 whole entry F265A) above, with L213A, A265F counted along it
T4 sequence (P43088 whole entry H81A): as the sequence (P43088 whole entry F265A) above, with H81A, A265F counted along it
T5 sequence (P43088 whole entry L290A): as the sequence (P43088 whole entry F265A) above, with A265F, L290A counted along it
T21 sequence (P43088 whole entry L123A): as the sequence (P43088 whole entry F265A) above, with L123A, A265F counted along it

∆pEC50 (pEC50 of agonist to mutant minus pEC50 to WT) ([1]; S33A mutant vs WT FP, IP1 accumulation, AD293 cells, single values of n = 3 independent samples): -1.0 and -1.1 and -0.8
effect of mutation on agonist affinity / potency (in words) ([1]; S33 to alanine vs WT FP): significantly impaired the affinity
effect of mutation on agonist affinity / induced activation (in words) [2]: significantly impaired the affinity
effect of mutation on agonist affinity (in words) [3]: significantly impaired the affinity
reduction of activity to FP by mutation [4]: over 1000 folds
effect of mutation on agonist affinity (in words) [5]: significantly impaired the affinity
effect of mutation on agonist potency (in words) [6]: decreased potency
IP1 accumulation response to PGF2α (dose-response source data) ([7]; log[PGF2α] -5): 21.57 and 17.44 and 18.01
IP1 accumulation response to PGF2α (dose-response source data) ([7]; log[PGF2α] -6): 20.73 and 14.37 and 13.23
IP1 accumulation response to PGF2α (dose-response source data) ([7]; log[PGF2α] -7): 14.89 and 14.23 and 16.03
IP1 accumulation response to PGF2α (dose-response source data) ([7]; log[PGF2α] -8): 16.86 and 14.19 and 10.91
IP1 accumulation response to PGF2α (dose-response source data) ([7]; log[PGF2α] -9): 17.57 and 19.43 and 13.59
IP1 accumulation response to PGF2α (dose-response source data) ([7]; log[PGF2α] -10): 9.93 and 11.01 and 11.54
IP1 accumulation response to PGF2α (dose-response source data) ([7]; log[PGF2α] -11): 5.43 and 6.41 and 3.41
IP1 accumulation response to PGF2α (dose-response source data) ([7]; log[PGF2α] -14): 0.27 and 6.69 and 6.06
∆pEC50 (pEC50 of agonist to mutant minus pEC50 to WT) ([8]; M115A mutant vs WT FP, IP1 accumulation, AD293 cells, single values of n = 3 independent samples): -2.0 and -2.1 and -1.9
decrease of affinity by mutation ([8]; M115 mutated to alanine vs WT FP): approximately 100 fold
effect of mutation on agonist activity (in words) [9]: loss of PGF2α activity
effect of mutation on agonist activity / potency (in words) [10]: decreased activity
∆pEC50 (pEC50 of agonist to mutant minus pEC50 to WT) [11]: 0.3 and 0.0 and 0.2
effect of mutation on agonist activity (in words) [12]: decreased PGF2α activity
∆pEC50 (pEC50 of agonist to mutant minus pEC50 to WT) ([13]; R291A mutant vs WT FP, IP1 accumulation, AD293 cells, single values of n = 3 independent samples): -2.6 and -2.4 and -2.5
effect of mutation on agonist activity / potency (in words) ([13]; R291 mutant (alanine) vs WT FP): decreased activity
∆pEC50 (pEC50 of agonist to mutant minus pEC50 to WT) [14]: -1.9 and -1.8
∆pEC50 (pEC50 of agonist to mutant minus pEC50 to WT) ([15]; F265A mutant vs WT FP, IP1 accumulation, AD293 cells, single values of n = 3 independent samples): -2.8 and -2.7
effect of mutation on agonist affinity (in words) ([15]; F265 to alanine vs WT FP): significantly impaired the affinity
∆pEC50 (pEC50 of agonist to mutant minus pEC50 to WT) ([16]; T294A mutant vs WT FP, IP1 accumulation, AD293 cells, single values of n = 3 independent samples): -2.2 and -2.3 and -2.0
effect of mutation on agonist affinity / potency (in words) ([16]; T294 to alanine vs WT FP): significantly impaired the affinity
effect of mutation on agonist activity (in words) [17]: loss of PGF2α activity
effect of mutation on agonist activity (in words) [18]: decreased PGF2α activity
effect of mutation on agonist activity / potency (in words) [19]: decreased activity
IP1 accumulation response to PGF2α (dose-response source data) ([20]; log[PGF2α] -5, replicate values): 101.79 and 97.30 and 100.89
IP1 accumulation response to PGF2α (dose-response source data) ([20]; log[PGF2α] -6, replicate values): 98.67 and 93.94 and 92.75
IP1 accumulation response to PGF2α (dose-response source data) ([20]; log[PGF2α] -7, replicate values): 95.13 and 96.40 and 98.46
IP1 accumulation response to PGF2α (dose-response source data) ([20]; log[PGF2α] -8, replicate values): 91.30 and 99.44 and 87.48
IP1 accumulation response to PGF2α (dose-response source data) ([20]; log[PGF2α] -9, replicate values): 86.14 and 76.33 and 80.44
IP1 accumulation response to PGF2α (dose-response source data) ([20]; log[PGF2α] -10, replicate values): 72.71 and 62.76 and 60.52
IP1 accumulation response to PGF2α (dose-response source data) ([20]; log[PGF2α] -11, replicate values): 49.52 and 56.92 and 52.06
IP1 accumulation response to PGF2α (dose-response source data) ([20]; log[PGF2α] -14, replicate values): 42.81 and 48.67 and 43.43
effect of mutation on agonist potency (in words) [21]: decreased potency
SMILES: CCCCC[C@H](O)/C=C/[C@@H]1[C@@H](C/C=C\CCCC(=O)O)[C@@H](O)C[C@H]1O [PGF2α, Prostaglandin F2α]
effect of mutation on agonist activity (in words) ([7]; R133 / R133A mutant vs WT FP): decreased PGF2α activity; also recorded: loss of PGF2α activity
